Laboratory results from patent US12686692B2, “KRas G12D inhibitors” (Mirati Therapeutics, Inc., priority 2020, dated 2026).

Experiments:
[1] = tested on: KRas G12D-mediated Phosphorylation of ERK; test: Inhibition of KRas G12D-mediated Phosphorylation of ERK in AGS cells; assay type: cell-based; conditions: Homo sapiens; AGS cells expressing G12D, 3 hours, phospho-ERK normalized to GAPDH
Procedure: AGS cells (ATCC CRL-1739) expressing G12D were grown in DMEM medium supplemented with 10% fetal bovine serum, 10 mM HEPES, and Penicillin/Streptomycin. Cells were plated in tissue culture treated 96 well plates at a density of 40,000 cells/well and allowed to attach for 12-14 hours. Diluted compounds were then added in a final concentration of 0.5% DMSO. After 3 hours, the medium was removed, 150 μl of 4.0% formaldehyde was added and the plates incubated at room temperature for 20 minutes. The plates were washed with PBS, and permeabilized with 150 μL of ice cold 100% methanol for 10 minutes. Non-specific antibody binding to the plates was blocked using 100 μL Licor blocking buffer (Li-Cor Biotechnology, Lincoln NE) for 1 hour at room temperature.
The amount of phospho-ERK was determined using an antibody specific for the phosphorylated form of ERK and compared to the amount of GAPDH. Primary antibodies used for the detection were added as follows: Phospho-ERK(Cell Signaling cs-9101) diluted 1:500 and GAPDH(Millipore MAB374) diluted 1:5000 in Licor block+0.05% Tween 20. The plates were incubated for 2 hours at room temperature. The plates were washed with PBS+0.05% Tween 20.
Secondary antibodies used to visualize primary antibodies were added as follows: Anti-rabbit-680 diluted 1:1000 and Anti-mouse-800 diluted 1:1000 both in Licor block+0.05% Tween20, and were incubated for 1 hour at room temperature. The plates were washed with PBS+0.05% Tween 20. A 100 μl aliquot of PBS was added to each well and the plates were read on a Li-Cor Odyssey CLX plate reader.
The phospho-ERK(Thr202/Tyr204 signal was normalized to the GAPDH signal for each well and percent of DMSO control values were calculated. IC50 values were generated using a 4-parameter fit of the dose response curve.

KRas G12D = KRas G12D (Homo sapiens, UniProt P01116, G12D); test: KRas G12D Binding Assay (TR-FRET displacement of labeled tracer); parameters: corresponding to amino acids 1:169, produced at Array BioPharma; biotin (protein is biotinylated); conditions: TR-FRET displacement of Cy5 labelled tracer, biotinylated GDP-loaded KRAS G12D (aa 1:169), 60 minute incubation at 22° C.
Procedure: This Example illustrates that exemplary compounds of the present invention bind to KRas G12D and are capable of displacing a labeled tracer ligand occupying the KRas G12D binding site.
The ability of a compound to bind to KRAS G12D was measured using a TR-FRET displacement assay. Biotinylated GDP-loaded recombinant human KRAS G12D (corresponding to amino acids 1:169, produced at Array BioPharma) was incubated with a custom-made Cy5 labelled tracer, europium labelled streptavidin and compound (2% DMSO final) in buffer (50 mM HEPES [pH 7.5], 5 mM MgCl2, 0.005% Tween-20 & 1 mM DTT). After a 60 minute incubation at 22° C., the reaction was measured using a PerkinElmer EnVision multimode plate reader via TR-FRET dual wavelength detection, and the percent of control (POC) calculated using a ratiometric emission factor. […] The POC values were fit to a 4-parameter logistic curve and the IC50 value was determined as the concentration where the curve crosses 50 POC.

Sequence of KRas G12D (P01116 1-169 isoform P01116-2 G12D): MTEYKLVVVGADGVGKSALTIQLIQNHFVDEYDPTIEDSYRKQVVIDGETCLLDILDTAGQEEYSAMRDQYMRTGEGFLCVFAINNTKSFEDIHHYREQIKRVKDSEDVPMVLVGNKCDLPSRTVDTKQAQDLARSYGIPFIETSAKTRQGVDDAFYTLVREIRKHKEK

| SMILES | IC50 [1] [nM] | IC50 (KRas G12D) [nM] |
| --- | --- | --- |
| Oc1cc(N2CCc3c(nc(OC[C@@]45CCCN4C[C@H](F)C5)nc3N3C[C@H]4CC[C@@H](C3)N4)C2)c2c(Cl)cccc2c1 [Example 117, 4-(4-((1R,5S)-3,8-diazabicyclo[3.2.1]octan-3-yl)-2-(((2R,7aS)-2-fluorohexahydro-1H-pyrrolizin-7a-yl)methoxy)-5,6-dihydropyrido[3,4-d]pyrimidin-7(8H)-yl)-5-chloronaphthalen-2-ol] | 76 | 0.7 |
| CCc1cccc2cccc(N3CCc4c(nc(OCC56CCCN5C(COC(=O)N(CC)CC)CC6)nc4N4C[C@H]5CC[C@@H](C4)N5)C3)c12 (mixture of isomers) [Example 66, (7a-(((4-((1R,5S)-3,8-diazabicyclo[3.2.1]octan-3-yl)-7-(8-ethylnaphthalen-1-yl)-5,6,7,8-tetrahydropyrido[3,4-d]pyrimidin-2-yl)oxy)methyl)hexahydro-1H-pyrrolizin-3-yl)methyl diethylcarbamate] | 2210 | 4.6 |
| CCc1cccc2cc(O)cc(N3CCc4c(nc(OCC56CCCN5C[C@H](F)C6)nc4N4CC5CCC(C4)N5)C3)c12 (mixture of isomers) [Example 6, 4-(4-((1R,5S)-3,8-diazabicyclo[3.2.1]octan-3-yl)-2-((2-fluorotetrahydro-1H-pyrrolizin-7a(5H)-yl)methoxy)-5,8-dihydropyrido[3,4-d]pyrimidin-7(6H)-yl)-5-ethylnaphthalen-2-ol (racemic, trans)] | 12 | 0.8 |
| CCc1cccc2cccc(N3CCc4c(nc(OCC56CCCN5CCC6)nc4N4C[C@H]5CC[C@@H](C4)N5)C3)c12 [Example 10, 4-((1R,5S)-3,8-diazabicyclo[3.2.1]octan-3-yl)-7-(8-ethylnaphthalen-1-yl)-2-((tetrahydro-1H-pyrrolizin-7a(5H)-yl)methoxy)-5,6,7,8-tetrahydropyrido[3,4-d]pyrimidine] | 738 | 1.1 |
| CCc1cccc2cccc(N3CCc4c(nc(OCC56CCCN5CC(F)C6)nc4N4C[C@H]5CC[C@@H](C4)N5)C3)c12 (mixture of isomers) [Example 9, 4-((1R,5S)-3,8-diazabicyclo[3.2.1]octan-3-yl)-7-(8-ethylnaphthalen-1-yl)-2-((2-fluorotetrahydro-1H-pyrrolizin-7a(5H)-yl)methoxy)-5,6,7,8-tetrahydropyrido[3,4-d]pyrimidine (racemic, trans)] | 1660 | 3.1 |
| CCc1cccc2cccc(N3CCc4c(nc(OCC56CCCN5C(COC(=O)N(C)OC)CC6)nc4N4C[C@H]5CC[C@@H](C4)N5)C3)c12 (mixture of isomers) [Example 68, (7a-(((4-((1R,5S)-3,8-diazabicyclo[3.2.1]octan-3-yl)-7-(8-ethylnaphthalen-1-yl)-5,6,7,8-tetrahydropyrido[3,4-d]pyrimidin-2-yl)oxy)methyl)hexahydro-1H-pyrrolizin-3-yl)methyl methoxy(methyl)carbamate] | 1330 | 5.9 |
| CCc1cccc2cccc(N3CCc4c(nc(OC[C@@H]5CCCN5C)nc4N4C[C@H]5CC[C@@H](C4)N5)C3)c12 [Example 8, 4-((1R,5S)-3,8-diazabicyclo[3.2.1]octan-3-yl)-7-(8-ethylnaphthalen-1-yl)-2-(((S)-1-methylpyrrolidin-2-yl)methoxy)-5,6,7,8-tetrahydropyrido[3,4-d]pyrimidine] | 12600 | 5.5 |
| CCc1cccc2cccc(N3CCc4c(nc(OC[C@]56CCCN5[C@@H](COC(=O)N(C)CCO)CC6)nc4N4C[C@H]5CC[C@@H](C4)N5)C3)c12 [Example 107, ((3R,7aR)-7a-(((4-((1R,5S)-3,8-diazabicyclo[3.2.1]octan-3-yl)-7-(8-ethylnaphthalen-1-yl)-5,6,7,8-tetrahydropyrido[3,4-d]pyrimidin-2-yl)oxy)methyl)hexahydro-1H-pyrrolizin-3-yl)methyl (2-hydroxyethyl)(methyl)carbamate] | 408 | 2 |
| CCc1cccc2cccc(N3CCc4c(nc(OCC56CCCN5[C@@H](COC(=O)N(C)C)CC6)nc4N4CC5CCC(C4)N5)C3)c12 (stereo partly drawn) [Example 13, (7a-(((4-((1R,5S)-3,8-diazabicyclo[3.2.1]octan-3-yl)-7-(8-ethylnaphthalen-1-yl)-5,6,7,8-tetrahydropyrido[3,4-d]pyrimidin-2-yl)oxy)methyl)hexahydro-1H-pyrrolizin-3-yl)methyl dimethylcarbamate (trans enantiomers)] | 261 | 1.3 |
| Oc1cc(N2CCc3c(nc(OCC45CCCN4C[C@H](F)C5)nc3N3CC4CCC(C3)N4)C2)c2c(Cl)cccc2c1 (mixture of isomers) [Example 49, 4-(4-((1R,5S)-3,8-diazabicyclo[3.2.1]octan-3-yl)-2-((2-fluorotetrahydro-1H-pyrrolizin-7a(5H)-yl)methoxy)-5,8-dihydropyrido[3,4-d]pyrimidin-7(6H)-yl)-5-chloronaphthalen-2-ol] | 77 | 0.5 |
| COC[C@@H]1C[C@@H]2CN(c3nc(OC[C@@H]4CCCN4C)nc4c3CCN(c3cccc5cccc(Cl)c35)C4)C[C@H]1N2 (single isomer, unassigned) [Example 93] | > 16700 | 360 |
| CCc1cccc2cccc(N3CCc4c(nc(OC[C@]56CCCN5[C@@H](COC(=O)NCCOC)CC6)nc4N4C[C@H]5CC[C@@H](C4)N5)C3)c12 [Example 108, ((3R,7aR)-7a-(((4-((1R,5S)-3,8-diazabicyclo[3.2.1]octan-3-yl)-7-(8-ethylnaphthalen-1-yl)-5,6,7,8-tetrahydropyrido[3,4-d]pyrimidin-2-yl)oxy)methyl)hexahydro-1H-pyrrolizin-3-yl)methyl (2-methoxyethyl)carbamate] | 585 | 2 |
| CCc1cccc2cc(O)cc(N3CCc4c(nc(OC[C@@]56CCCN5C[C@H](F)C6)nc4N4C[C@H]5CC[C@@H](C4)N5)C3)c12 [Example 7, 4-(4-((1R,5S)-3,8-diazabicyclo[3.2.1]octan-3-yl)-2-(((2R,7aS)-2-fluorotetrahydro-1H-pyrrolizin-7a(5H)-yl)methoxy)-5,8-dihydropyrido[3,4-d]pyrimidin-7(6H)-yl)-5-ethylnaphthalen-2-ol] | 13 | 1 |
| Brc1ccc(N2CCc3c(nc(OCC45CCCN4CCC5)nc3N3C[C@H]4CC[C@@H](C3)N4)C2)c2ccccc12 [Example 112, 4-((1R,5S)-3,8-diazabicyclo[3.2.1]octan-3-yl)-7-(4-bromonaphthalen-1-yl)-2-((hexahydro-1H-pyrrolizin-7a-yl)methoxy)-5,6,7,8-tetrahydropyrido[3,4-d]pyrimidine] | > 16700 | 5460 |
| F[C@H]1CN2CCCC2(COc2nc3c(c(N4CC5CCC(C4)N5)n2)CCN(c2cccc(Cl)c2C2CC2)C3)C1 (mixture of isomers) [Example 17, 4-((1R,5S)-3,8-diazabicyclo[3.2.1]octan-3-yl)-7-(3-chloro-2-cyclopropylphenyl)-2-((2-fluorotetrahydro-1H-pyrrolizin-7a(5H)-yl)methoxy)-5,6,7,8-tetrahydropyrido[3,4-d]pyrimidine (racemic, trans)] | > 16700 | 29.5 |
| CCc1c(F)ccc2cc(O)cc(N3CCc4c(nc(OCC56CCCN5CCC6)nc4N4C[C@H]5CC[C@@H](C4)N5)C3)c12 [Example 119, 4-(4-((1R,5S)-3,8-diazabicyclo[3.2.1]octan-3-yl)-2-((hexahydro-1H-pyrrolizin-7a-yl)methoxy)-5,6-dihydropyrido[3,4-d]pyrimidin-7(8H)-yl)-5-ethyl-6-fluoronaphthalen-2-ol] | 7 | 1.6 |
| Cc1cccc2cccc(N3CCc4c(nc(OCC56CCCN5C[C@H](F)C6)nc4N4CC5CCC(C4)N5)C3)c12 (mixture of isomers) [Example 50, 4-((1R,5S)-3,8-diazabicyclo[3.2.1]octan-3-yl)-2-((2-fluorotetrahydro-1H-pyrrolizin-7a(5H)-yl)methoxy)-7-(8-methylnaphthalen-1-yl)-5,6,7,8-tetrahydropyrido[3,4-d]pyrimidine] | > 16700 | 7.1 |
